Measurements taken from the RepoRT retention time repository (doi:10.1016/j.chroma.2015.03.063).

Assays:
[1] = Agilent ZORBAX Eclipse Plus C18, 100 × 2.1 mm, 1.8 µm, 25 °C, 0.3 mL/min, estimated dead time 0.73 min; A: water + 0.1% acetic acid; B: methanol; gradient (min/%B) 0/5 6/20 13/35 18/50 24/65 30/90 40/90; conditions: stereoisomer not certain
[2] = RP, Thermo Scientific Accucore C18, 150 × 2.1 mm, 2.6 µm, 24 °C, 0.28 mL/min, estimated dead time 0.83 min; A: 90% water + 10% acetonitrile + 10 mM ammonium acetate; B: 20% water + 80% methanol + 10 mM ammonium acetate; gradient (min/%B) 0/0 2.5/0 7.5/30 12.5/30 15/40 20/100 27.5/100; conditions: stereoisomer not certain

| SMILES | LC retention time [1] [min] | LC retention time [2] [min] |
| --- | --- | --- |
| COc1cc(C=CC(=O)O)ccc1O | 11.5 | – |
| CC(C)(O)C1CCC(C)(C2C(O)CC3(C)C4CC(OC5OC(CO)C(O)C(O)C5O)C5C(C)(C)C(OC6OCC(O)C(O)C6O)CCC56CC46CCC23C)O1 (configuration not stated) | 32.2 | – |
| Nc1ncnc2nc[nH]c12 | 2.73 | – |
| NC(Cc1c[nH]c2ccccc12)C(=O)O (configuration not stated) | 9.7 | – |
| O=C(O)c1cccnc1 | 3.34 | – |
| OCC1OC(OCC2OC(OC3(CO)OC(CO)C(O)C3O)C(O)C(O)C2O)C(O)C(O)C1O (configuration not stated) | 2.54 | – |
| COc1cc(C(=O)O)cc(OC)c1O | 9.87 | – |
| CC(C)CC(N)C(=O)O (configuration not stated) | 5.02 | – |
| NC(=O)CC(N)C(=O)O (configuration not stated) | 2.11 | – |
| NCCCCC(N)C(=O)O (configuration not stated) | 1.88 | – |
| OCC1OC(OC2(CO)OC(CO)C(O)C2O)C(O)C(O)C1O (configuration not stated) | 2.4 | – |
| O=c1cc[nH]c(=O)[nH]1 | 4.2 | – |
| COc1ccc(-c2coc3cc(OC4OC(CO)C(O)C(O)C4O)ccc3c2=O)cc1O (configuration not stated) | 17.6 | – |
| O=Cc1ccc(CO)o1 | 7.09 | – |
| CC1OC(OCC2OC(Oc3c(-c4ccc(O)c(O)c4)oc4cc(O)cc(O)c4c3=O)C(O)C(O)C2O)C(O)C(O)C1O (configuration not stated) | 11.6 | – |
| Nc1ncnc2c1ncn2C1OC(CO)C(O)C1O (configuration not stated) | 5.25 | – |
| CC(C)(C)NCC(O)COc1cccc2c1CCC(=O)N2 (configuration not stated) | – | 4.22 |
| COc1ccc(-c2coc3cc(OC4OC(CO)C(O)C(O)C4O)ccc3c2=O)cc1 (configuration not stated) | 21.6 | – |
| CCCN(CCC)S(=O)(=O)c1ccc(C(=O)O)cc1 | – | 8.74 |
| COc1cc(Cc2cnc(N)nc2N)cc(OC)c1OC | – | 6.44 |
| CSCCC(N)C(=O)O (configuration not stated) | 3.21 | – |

| SMILES | LC retention time [1] [min] | LC retention time [2] [min] |
| --- | --- | --- |
| CC(C)NCC(O)COc1cccc2ccccc12 (configuration not stated) | – | 9.86 |
| CC(N)C(=O)c1ccccc1 (configuration not stated) | – | 8.59 |
| C=CCOc1ccccc1OCC(O)CNC(C)C (configuration not stated) | – | 8.57 |
| CC(CN1CCOCC1)C(C(=O)N1CCCC1)(c1ccccc1)c1ccccc1 (configuration not stated) | – | 19 |
| CNC(C)CC1CCCCC1 (configuration not stated) | – | 8.35 |
| CC(C(=O)O)c1cccc(C(=O)c2ccccc2)c1 (configuration not stated) | – | 8.05 |
| O=C(C=Cc1ccc(O)c(O)c1)OC1CC(O)(C(=O)O)CC(O)C1O (configuration not stated) | 8.99 | – |
| COC(=O)C1=COC(OC2OC(CO)C(O)C(O)C2O)C2C(CO)=CCC12 (configuration not stated) | 13.9 | – |
| CCN(CC)C(=O)c1ccc(O)c(OC)c1 | – | 8.07 |
| NC(Cc1ccc(O)cc1)C(=O)O (configuration not stated) | 4.31 | – |
| CC(O)C(N)C(=O)O (configuration not stated) | 2.12 | – |
| CC(N)Cc1ccc2c(c1)OCO2 (configuration not stated) | – | 4.23 |
| CCNC1C2CCC(C2)C1c1ccccc1 (configuration not stated) | – | 9.1 |
| CC(N)Cc1ccccc1 (configuration not stated) | – | 3.77 |
| CCC(=O)C(CC(C)N(C)C)(c1ccccc1)c1ccccc1 (configuration not stated) | – | 16.5 |
| c1ccc(CN2CCNCC2)cc1 | – | 4.45 |
| COC(=O)C1C(OC(=O)c2ccccc2)CC2CCC1N2C (configuration not stated) | – | 8.59 |
| CCCC(Cc1ccccc1)N1CCCC1 (configuration not stated) | – | 9.51 |
| CC(=O)CC(c1ccccc1)c1c(O)c2ccccc2oc1=O (configuration not stated) | – | 9.01 |
| CCCC(C(=O)c1ccc2c(c1)OCO2)N1CCCC1 (configuration not stated) | – | 8.97 |
| O=C(O)c1ccc(O)c(O)c1 | 7.74 | – |

| SMILES | LC retention time [1] [min] | LC retention time [2] [min] |
| --- | --- | --- |
| CC(C)(C)NCC(O)COc1cccc2c1CCCC2=O (configuration not stated) | – | 7.63 |
| CNC(C)CCC=C(C)C (configuration not stated) | – | 7.13 |
| C[n+]1cccc(C(=O)[O-])c1 | 2.21 | – |
| CC(=O)Oc1c(C)cc(OCC(O)CNC(C)C)c(C)c1C (configuration not stated) | – | 9.53 |
| CN(C)CCC=C1c2ccccc2CCc2ccccc21 | – | 17.2 |
| COc1ccc(-c2coc3cc(O)ccc3c2=O)cc1O | 23.6 | – |
| OCc1cc(C(O)CNCCCCCCOCCCCc2ccccc2)ccc1O (configuration not stated) | – | 17 |
| COc1ccc2c3c1OC1C(O)C=CC4C(C2)N(C)CCC341 (configuration not stated) | – | 4.48 |
| CC(C)NCC(O)COc1ccc(CCOCC2CC2)cc1 (configuration not stated) | – | 10.2 |
| CCCCC=CC=CC=O | 22.7 | – |
| C=C1CCCC2(C)CC3(O)OC(=O)C(C)=C3CC12 (configuration not stated) | 30.1 | – |
| C1CCc2nnnn2CC1 | – | 2.93 |
| C=CCc1ccccc1OCC(O)CNC(C)C (configuration not stated) | – | 10.1 |
| C[N+](C)(C)CC(=O)[O-] | 2.8 | – |
| CC12C=CC(=O)C=C1CCC1C2C(=O)CC2(C)C1CCC2(O)C(=O)CO (configuration not stated) | – | 9.4 |
| CC(CCc1ccccc1)NCC(O)c1ccc(O)c(C(N)=O)c1 (configuration not stated) | – | 9 |
| Cc1cccc(Nc2ccccc2C(=O)O)c1C | – | 13 |
| Cc1cc(=O)n(-c2ccccc2)n1C | – | 5.43 |
| CCCCCC(C)N (configuration not stated) | – | 6.13 |
| CC1(C)OC2CC3C4CCC5=CC(=O)C=CC5(C)C4C(O)CC3(C)C2(C(=O)CO)O1 (configuration not stated) | – | 12.7 |
| COC(=O)CCc1ccc(OCC(O)CNC(C)C)cc1 (configuration not stated) | – | 8.1 |

| SMILES | LC retention time [1] [min] | LC retention time [2] [min] |
| --- | --- | --- |
| NC(CC(O)COc1cccc2ccccc12)=NO (configuration not stated) | – | 9.66 |
| NC(Cc1ccccc1)C(=O)O (configuration not stated) | 7.22 | – |
| CC1NCCOC1c1ccccc1 (configuration not stated) | – | 4.89 |
| CC(C)(C)NCC(O)COc1nsnc1N1CCOCC1 (configuration not stated) | – | 7.05 |
| CCC(C)C(N)C(=O)O (configuration not stated) | 4.67 | – |
| O=c1cc(-c2ccc(O)cc2)oc2cc(OC3OC(CO)C(O)C(O)C3O)cc(O)c12 (configuration not stated) | 18.2 | – |
| NC(=O)N1c2ccccc2C=Cc2ccccc21 | – | 10.7 |
| CCC(=C(c1ccccc1)c1ccc(OCCN(C)C)cc1)c1ccccc1 | – | 21.2 |
| CNC(C)Cc1ccc2c(c1)OCO2 (configuration not stated) | – | 5.12 |
| C#CC1(O)CCC2C3CCC4=CC(=O)CCC4=C3C=CC21CC (configuration not stated) | – | 17.5 |
| CC(C)(C)NCC(O)COc1cccc2c1CC(O)C(O)C2 (configuration not stated) | – | 4.97 |
| COc1ccc2c(c1)C13CCCCC1C(C2)N(C)CC3 (configuration not stated) | – | 11 |
| C[N+](C)(C)CCO | 2.08 | – |
| NC(N)=NCCCC(N)C(=O)O (configuration not stated) | 2.05 | – |
| CC(Cc1ccc(O)cc1)NCC(O)c1cc(O)cc(O)c1 (configuration not stated) | – | 3.13 |
| CC1CC2C(C(O)CC3(C)C2CCC3(O)C(=O)CO)C2(C)C=CC(=O)C=C12 (configuration not stated) | – | 11 |
| CCN(CC)C(=O)c1cccnc1 | – | 5.49 |
| Cc1cc(C)cc(NC(=O)Cc2ccc(OC(C)(C)C(=O)O)cc2)c1 | – | 9.1 |
| COc1cccc(C2(O)CCCCC2CN(C)C)c1 (configuration not stated) | – | 7.44 |
